# Where a name gives a salt, the structure may show the parent alone.
# Columns and labels:
# [1] = target: T1, HiBit-BRM fusion protein (Homo sapiens, UniProt P51531); assay: HiBiT-BRM cell-based degradation assay (Nano-Glo HiBiT Lytic Detection, 24 h); conditions: HeLa cells expressing HiBiT-BRM; for DC50: read-out: BRM HiBit Degradation IC50; for BRM HiBit Degradation Maximum measured: top dose 30 μM
# T1 construct: expressed in transfected cells
# Outline: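 HeLa cells stably expressing HiBiT-BRM were dosed with compounds (10-point 3-fold dilutions, 30 μM final top dose, duplicate) for 24 h. HiBiT signal was read by lytic LgBiT complementation luminescence. Percent degradation was normalised to DMSO (high control) and 2 μM of a reference BRM/BRG1 degrader (low control).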
# [2] = target: T2, HiBit-BRG1 fusion protein (Homo sapiens, UniProt P51532); assay: HiBiT-BRG1 cell-based degradation assay (Nano-Glo HiBiT Lytic Detection, 24 h); conditions: HeLa cells expressing HiBit-BRG1 and LgBit; for DC50: read-out: BRG1 HiBit Degradation IC50; for Dmax: HeLa, top dose 30 μM, read-out: BRG1 HiBit Degradation Maximum measured
# T2 construct: expressed in transfected cells
# Outline: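 Stable HeLa line expressing HiBiT-BRG1 and LgBiT, seeded at 5000 cells/well; luminescence read after lytic Nano-Glo HiBiT reagent and 10 min shaking at RT. % degradation normalised between DMSO (high control) and 2 μM reference BRM/BRG1 degrader (low control).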
# T1 sequence (P51531 whole entry, the tested form may be a part): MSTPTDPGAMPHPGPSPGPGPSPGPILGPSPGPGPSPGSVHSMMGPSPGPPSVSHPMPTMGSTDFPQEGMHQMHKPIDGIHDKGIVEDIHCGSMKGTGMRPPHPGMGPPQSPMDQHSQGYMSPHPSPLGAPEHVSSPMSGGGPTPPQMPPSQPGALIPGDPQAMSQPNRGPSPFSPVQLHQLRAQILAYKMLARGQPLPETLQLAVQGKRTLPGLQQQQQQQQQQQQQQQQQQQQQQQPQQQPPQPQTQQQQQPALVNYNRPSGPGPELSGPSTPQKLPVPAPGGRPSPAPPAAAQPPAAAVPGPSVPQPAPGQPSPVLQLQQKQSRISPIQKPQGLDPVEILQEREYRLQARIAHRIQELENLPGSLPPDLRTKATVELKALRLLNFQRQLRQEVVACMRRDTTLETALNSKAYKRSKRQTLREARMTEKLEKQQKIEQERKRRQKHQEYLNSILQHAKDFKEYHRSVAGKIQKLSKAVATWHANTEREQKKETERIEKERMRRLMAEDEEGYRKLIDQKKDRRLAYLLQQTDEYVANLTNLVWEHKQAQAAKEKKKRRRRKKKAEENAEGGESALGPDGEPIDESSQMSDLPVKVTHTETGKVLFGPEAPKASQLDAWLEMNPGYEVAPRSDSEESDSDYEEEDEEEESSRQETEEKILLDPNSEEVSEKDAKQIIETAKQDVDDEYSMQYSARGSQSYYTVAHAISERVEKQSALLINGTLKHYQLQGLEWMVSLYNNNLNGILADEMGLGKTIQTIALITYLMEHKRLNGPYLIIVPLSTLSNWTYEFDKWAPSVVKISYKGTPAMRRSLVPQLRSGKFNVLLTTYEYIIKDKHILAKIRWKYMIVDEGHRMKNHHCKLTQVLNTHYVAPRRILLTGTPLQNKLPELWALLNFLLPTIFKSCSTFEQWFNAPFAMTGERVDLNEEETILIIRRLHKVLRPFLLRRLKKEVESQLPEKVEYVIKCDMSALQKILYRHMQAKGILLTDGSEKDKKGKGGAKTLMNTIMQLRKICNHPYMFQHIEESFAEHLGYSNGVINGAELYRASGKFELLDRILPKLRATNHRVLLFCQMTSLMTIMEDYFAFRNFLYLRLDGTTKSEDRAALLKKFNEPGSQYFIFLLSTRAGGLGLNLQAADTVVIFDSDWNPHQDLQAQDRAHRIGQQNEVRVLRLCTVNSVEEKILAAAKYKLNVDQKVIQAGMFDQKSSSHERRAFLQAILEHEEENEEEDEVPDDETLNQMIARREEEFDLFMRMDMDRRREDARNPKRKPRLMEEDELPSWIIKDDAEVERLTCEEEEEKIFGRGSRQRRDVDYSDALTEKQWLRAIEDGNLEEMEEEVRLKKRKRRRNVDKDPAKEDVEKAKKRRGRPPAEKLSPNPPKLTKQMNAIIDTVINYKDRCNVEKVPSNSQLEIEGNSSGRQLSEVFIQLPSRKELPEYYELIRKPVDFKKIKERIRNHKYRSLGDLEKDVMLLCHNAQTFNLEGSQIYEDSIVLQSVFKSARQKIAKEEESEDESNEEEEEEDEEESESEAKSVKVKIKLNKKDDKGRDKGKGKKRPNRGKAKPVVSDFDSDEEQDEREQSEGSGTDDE
# T2 sequence (P51532 whole entry, the tested form may be a part): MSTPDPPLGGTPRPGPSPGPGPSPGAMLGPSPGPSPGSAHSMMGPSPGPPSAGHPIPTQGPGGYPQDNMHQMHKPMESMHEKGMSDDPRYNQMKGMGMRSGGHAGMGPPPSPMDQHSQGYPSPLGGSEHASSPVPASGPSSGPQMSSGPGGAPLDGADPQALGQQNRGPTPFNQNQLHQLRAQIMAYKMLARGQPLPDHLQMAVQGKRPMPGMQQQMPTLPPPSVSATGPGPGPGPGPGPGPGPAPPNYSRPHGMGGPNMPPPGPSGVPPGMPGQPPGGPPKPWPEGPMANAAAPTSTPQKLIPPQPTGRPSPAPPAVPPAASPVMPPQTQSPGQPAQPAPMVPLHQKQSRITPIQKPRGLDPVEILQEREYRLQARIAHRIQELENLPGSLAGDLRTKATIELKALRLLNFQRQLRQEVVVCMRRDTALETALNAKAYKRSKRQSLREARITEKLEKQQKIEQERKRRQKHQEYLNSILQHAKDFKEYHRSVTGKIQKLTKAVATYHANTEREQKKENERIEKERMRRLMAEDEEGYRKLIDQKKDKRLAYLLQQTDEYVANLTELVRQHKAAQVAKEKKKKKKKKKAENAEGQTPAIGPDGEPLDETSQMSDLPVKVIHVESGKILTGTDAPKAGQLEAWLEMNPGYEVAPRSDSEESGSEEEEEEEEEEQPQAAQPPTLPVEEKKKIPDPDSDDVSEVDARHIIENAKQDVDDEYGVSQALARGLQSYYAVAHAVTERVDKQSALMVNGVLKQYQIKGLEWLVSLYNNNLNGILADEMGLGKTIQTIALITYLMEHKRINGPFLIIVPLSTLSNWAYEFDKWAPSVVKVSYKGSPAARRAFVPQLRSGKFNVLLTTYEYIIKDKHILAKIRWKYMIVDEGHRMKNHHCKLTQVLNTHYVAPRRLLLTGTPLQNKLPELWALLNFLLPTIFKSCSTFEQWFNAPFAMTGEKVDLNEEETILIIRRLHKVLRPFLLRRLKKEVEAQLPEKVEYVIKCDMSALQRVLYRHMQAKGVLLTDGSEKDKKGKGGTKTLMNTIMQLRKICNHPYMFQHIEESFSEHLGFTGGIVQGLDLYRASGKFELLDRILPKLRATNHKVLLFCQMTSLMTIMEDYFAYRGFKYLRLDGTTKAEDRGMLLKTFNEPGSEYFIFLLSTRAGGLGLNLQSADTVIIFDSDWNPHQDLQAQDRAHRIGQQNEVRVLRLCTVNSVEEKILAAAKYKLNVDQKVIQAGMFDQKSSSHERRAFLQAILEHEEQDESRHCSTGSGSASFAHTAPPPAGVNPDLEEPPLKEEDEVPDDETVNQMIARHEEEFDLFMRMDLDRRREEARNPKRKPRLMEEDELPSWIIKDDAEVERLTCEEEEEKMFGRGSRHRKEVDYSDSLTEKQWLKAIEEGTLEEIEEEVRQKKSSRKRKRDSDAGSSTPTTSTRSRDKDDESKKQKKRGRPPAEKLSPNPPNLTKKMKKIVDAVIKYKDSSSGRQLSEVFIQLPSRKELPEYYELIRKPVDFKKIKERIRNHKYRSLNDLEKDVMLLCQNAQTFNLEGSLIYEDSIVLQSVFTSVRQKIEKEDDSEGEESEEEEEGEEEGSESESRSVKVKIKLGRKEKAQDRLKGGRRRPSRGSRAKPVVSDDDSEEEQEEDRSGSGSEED
Compound,DC50 [1] [µM],BRM HiBit Degradation Maximum measured [1],DC50 [2] [µM],Dmax [2] [%]
"CS(=O)(=O)n1ccc(C(=O)NCC(=O)Nc2nc(-c3cccc(-c4ccnc(C5(C(=O)NCCNc6ccc7c(c6)C(=O)N(C6CCC(=O)NC6=O)C7=O)CC5)c4)c3)cs2)c1 (centres unmarked) [Compound 133, N-(2-[[2-(2,6-dioxopiperidin-3-yl)-1,3-dioxoisoindol-5-yl]amino]ethyl)-1-[4-[3-(2-[2-[(1-methanesulfonylpyrrol-3-yl)formamido]acetamido]-1,3-thiazol-4-yl)phenyl]pyridin-2-yl]cyclopropane-1-carboxamide]",0.1 to 1,B (‘B’ = Maximum degradation ≥50% and ≤75%),< 0.1,> 75
"CS(=O)(=O)n1ccc(C(=O)NCC(=O)Nc2nc(-c3cccc(-c4ccnc(C5(C(=O)N6CCN(CCCOc7ccc8c(c7)C(=O)N(C7CCC(=O)NC7=O)C8=O)CC6)CC5)c4)c3)cs2)c1 (centres unmarked) [Compound 135, N-[4-[3-(2-[1-[4-(3-[[2-(2,6-dioxopiperidin-3-yl)-1,3-dioxoisoindol-5-yl]oxy]propyl)piperazine-1-carbonyl]cyclopropyl]pyridin-4-yl)phenyl]-1,3-thiazol-2-yl]-2-[(1-methanesulfonylpyrrol-3-yl)formamido]acetamide]",0.1 to 1,B (‘B’ = Maximum degradation ≥50% and ≤75%),0.1 to 1,> 75
"Cc1ncsc1-c1ccc(CNC(=O)[C@@H]2C[C@@H](O)CN2C(=O)[C@@H](NC(=O)C2CC3(CC(C(=O)NCc4cccc(-c5cccc(-c6csc(NC(=O)CNC(=O)c7ccn(S(C)(=O)=O)c7)n6)c5)c4)C3)C2)C(C)(C)C)cc1 (stereo partly drawn) [Compound 137, N2-[(2S)-1-[(2S,4R)-4-hydroxy-2-([[4-(4-methyl-1,3-thiazol-5-yl)phenyl]methyl]carbamoyl)pyrrolidin-1-yl]-3,3-dimethyl-1-oxobutan-2-yl]-N6-[[3′-(2-[2-[(1-methanesulfonylpyrrol-3-yl)formamido]acetamido]-1,3-thiazol-4-yl)-[1,1′-biphenyl]-3-yl]methyl]spiro[3.3]heptane-2,6-dicarboxamide]",> 10,C (‘C’ = Maximum degradation <50%),> 10,< 50
"Cc1ncsc1-c1ccc(CNC(=O)[C@@H]2C[C@@H](O)CN2C(=O)[C@@H](NC(=O)CN2CCC(C(=O)NCc3cccc(-c4cccc(-c5csc(NC(=O)CNC(=O)c6ccn(S(C)(=O)=O)c6)n5)c4)c3)CC2)C(C)(C)C)cc1 [Compound 138, 1-([[(2S)-1-[(2S,4R)-4-hydroxy-2-([[4-(4-methyl-1,3-thiazol-5-yl)phenyl]methyl]carbamoyl)pyrrolidin-1-yl]-3,3-dimethyl-1-oxobutan-2-yl]carbamoyl]methyl)-N-[[3-(2-[2-[(1-methanesulfonylpyrrol-3-yl)formamido]acetamido]-1,3-thiazol-4-yl)-[1,1-biphenyl]-3-yl]methyl]piperidine-4-carboxamide]",1 to 10,B (‘B’ = Maximum degradation ≥50% and ≤75%),1 to 10,50 to 75
"CS(=O)(=O)n1ccc(C(=O)NCC(=O)Nc2nc(-c3cccc(-c4ccnc(C5(C(=O)N6CC(Oc7ccc8c(c7)C(=O)N(C7CCC(=O)NC7=O)C8=O)C6)CC5)c4)c3)cs2)c1 (centres unmarked) [Compound 141, N-[4-(3-[2-[1-(3-[[2-(2,6-dioxopiperidin-3-yl)-1,3-dioxoisoindol-5-yl]oxy]azetidine-1-carbonyl)cyclopropyl]pyridin-4-yl]phenyl)-1,3-thiazol-2-yl]-2-[(1-methanesulfonylpyrrol-3-yl)formamido]acetamide]",0.1 to 1,B (‘B’ = Maximum degradation ≥50% and ≤75%),> 10,< 50
"CS(=O)(=O)n1ccc(C(=O)NCC(=O)Nc2nc(C3CCCN(C(=O)CCCCCCCCCCNc4ccc5c(c4)C(=O)N(C4CCC(=O)NC4=O)C5=O)C3)cs2)c1 (centres unmarked) [Compound 143, N-{4-[1-(11-{[2-(2,6-dioxopiperidin-3-yl)-1,3-dioxo-2,3-dihydro-1H-isoindol-5-yl]amino}undecanoyl)piperidin-3-yl]-1,3-thiazol-2-yl}-2-[(1-methanesulfonyl-1H-pyrrol-3-yl)formamido]acetamide]",> 10,C (‘C’ = Maximum degradation <50%),> 10,< 50
"CS(=O)(=O)n1ccc(C(=O)NCC(=O)Nc2nc(C3CCCN(C(=O)CCN4CCN(c5ccc6c(c5)C(=O)N(C5CCC(=O)NC5=O)C6=O)CC4)C3)cs2)c1 (centres unmarked) [Compound 146, N-{4-[1-(3-{4-[2-(2,6-dioxopiperidin-3-yl)-1,3-dioxo-2,3-dihydro-1H-isoindol-5-yl]piperazin-1-yl}propanoyl)piperidin-3-yl]-1,3-thiazol-2-yl}-2-[(1-methanesulfonyl-1H-pyrrol-3-yl)formamido]acetamide formate]",> 10,C (‘C’ = Maximum degradation <50%),> 10,< 50
"CS(=O)(=O)n1ccc(C(=O)NCC(=O)Nc2nc(C3CCCN(C(=O)CCCCOc4cccc5c4C(=O)N(C4CCC(=O)NC4=O)C5=O)C3)cs2)c1 (centres unmarked) [Compound 147, N-{4-[1-(5-{[2-(2,6-dioxopiperidin-3-yl)-1,3-dioxo-2,3-dihydro-1H-isoindol-4-yl]oxy}pentanoyl)piperidin-3-yl]-1,3-thiazol-2-yl}-2-[(1-methanesulfonyl-1H-pyrrol-3-yl)formamido]acetamide]",> 10,C (‘C’ = Maximum degradation <50%),> 10,< 50

# Next, values leading:
DC50 [1] [µM],BRM HiBit Degradation Maximum measured [1],DC50 [2] [µM],Dmax [2] [%],Compound
0.1 to 1,A (‘A’ = Maximum degradation >75%),< 0.1,> 75,"CS(=O)(=O)n1ccc(C(=O)NCC(=O)Nc2nc(-c3cccc(-c4ccnc(C5(C(=O)N6CCN(CC7CCN(c8ccc9c(c8)C(=O)N(C8CCC(=O)NC8=O)C9=O)CC7)CC6)CC5)c4)c3)cs2)c1 (centres unmarked) [Compound 134, N-[4-[3-(2-[1-[4-([1-[2-(2,6-dioxopiperidin-3-yl)-1,3-dioxoisoindol-5-yl]piperidin-4-yl]methyl)piperazine-1-carbonyl]cyclopropyl]pyridin-4-yl)phenyl]-1,3-thiazol-2-yl]-2-[(1-methanesulfonylpyrrol-3-yl)formamido]acetamide]"
> 10,C (‘C’ = Maximum degradation <50%),> 10,< 50,"CS(=O)(=O)n1ccc(C(=O)NCC(=O)Nc2nc(-c3cccc(-c4ccnc(C5(C(=O)N6CC(CCOc7cccc8c7C(=O)N(C7CCC(=O)NC7=O)C8=O)C6)CC5)c4)c3)cs2)c1 (centres unmarked) [Compound 136, N-[4-[3-(2-[1-[3-(2-[[2-(2,6-dioxopiperidin-3-yl)-1,3-dioxoisoindol-4-yl]oxy]ethyl)azetidine-1-carbonyl]cyclopropyl]pyridin-4-yl)phenyl]-1,3-thiazol-2-yl]-2-[(1-methanesulfonylpyrrol-3-yl)formamido]acetamide]"
0.1 to 1,A (‘A’ = Maximum degradation >75%),0.1 to 1,> 75,"CS(=O)(=O)n1ccc(C(=O)NCC(=O)Nc2nc(-c3cccc(-c4ccnc(C5(C(=O)NC6CCN(CCCCOc7ccc8c(c7)C(=O)N(C7CCC(=O)NC7=O)C8=O)CC6)CC5)c4)c3)cs2)c1 (centres unmarked) [Compound 140, N-[1-(4-[[2-(2,6-dioxopiperidin-3-yl)-1,3-dioxoisoindol-5-yl]oxy]butyl)piperidin-4-yl]-1-[4-[3-(2-[2-[(1-methanesulfonylpyrrol-3-yl)formamido]acetamido]-1,3-thiazol-4-yl)phenyl]pyridin-2-yl]cyclopropane-1-carboxamide]"
> 10,C (‘C’ = Maximum degradation <50%),> 10,< 50,Cc1ncsc1-c1ccc(CNC(=O)[C@@H]2C[C@@H](O)CN2C(=O)[C@@H](NC(=O)CCCCCCC(=O)NCc2cc(-c3cccc(-c4csc(NC(=O)CNC(=O)c5ccn(S(C)(=O)=O)c5)n4)c3)ccn2)C(C)(C)C)cc1 [Compound 142]
> 10,C (‘C’ = Maximum degradation <50%),> 10,< 50,"CS(=O)(=O)n1ccc(C(=O)NCC(=O)Nc2nc(C3CCCN(C(=O)CCOCCOCCOc4ccc5c(c4)C(=O)N(C4CCC(=O)NC4=O)C5=O)C3)cs2)c1 (centres unmarked) [Compound 144, N-[4-(1-{3-[2-(2-{[2-(2,6-dioxopiperidin-3-yl)-1,3-dioxo-2,3-dihydro-1H-isoindol-5-yl]oxy}ethoxy)ethoxy]propanoyl}piperidin-3-yl)-1,3-thiazol-2-yl]-2-[(1-methanesulfonyl-1H-pyrrol-3-yl)formamido]acetamide]"
> 10,C (‘C’ = Maximum degradation <50%),> 10,< 50,"CS(=O)(=O)n1ccc(C(=O)NCC(=O)Nc2nc(C3CCCN(C(=O)C4CCN(CCOc5ccc6c(c5)C(=O)N(C5CCC(=O)NC5=O)C6=O)CC4)C3)cs2)c1 (centres unmarked) [Compound 145, N-(4-{1-[1-(2-{[2-(2,6-dioxopiperidin-3-yl)-1,3-dioxo-2,3-dihydro-1H-isoindol-5-yl]oxy}ethyl)piperidine-4-carbonyl]piperidin-3-yl}-1,3-thiazol-2-yl)-2-[(1-methanesulfonyl-1H-pyrrol-3-yl)formamido]acetamide formate]"
